Paper PMC3602279 (Bioorganic & medicinal chemistry letters, 2013)
Entries after “also recorded” stand apart in the source; their conditions may differ.

How the values were obtained:
human κ opioid receptor = human κ opioid receptor (Homo sapiens, UniProt P41145); experiment: [35S]GTPγS binding, stimulation and inhibition of agonist-stimulated binding; format: biochemical; conditions: for Functional description: Kappa Opioid Receptor; for Emax: read-out: Emax (% maximal stimulation)
human μ opioid receptor = human μ opioid receptor (Homo sapiens, UniProt P35372); experiment: as above; format: biochemical; conditions: for Functional description / Imax (% maximal inhibition): Mu Opioid Receptor; for Imax (% maximal inhibition): inhibition of binding stimulated by 200 nM DAMGO; for Emax: read-out: Emax (% maximal stimulation)
Chain of human μ opioid receptor (P35372 whole entry): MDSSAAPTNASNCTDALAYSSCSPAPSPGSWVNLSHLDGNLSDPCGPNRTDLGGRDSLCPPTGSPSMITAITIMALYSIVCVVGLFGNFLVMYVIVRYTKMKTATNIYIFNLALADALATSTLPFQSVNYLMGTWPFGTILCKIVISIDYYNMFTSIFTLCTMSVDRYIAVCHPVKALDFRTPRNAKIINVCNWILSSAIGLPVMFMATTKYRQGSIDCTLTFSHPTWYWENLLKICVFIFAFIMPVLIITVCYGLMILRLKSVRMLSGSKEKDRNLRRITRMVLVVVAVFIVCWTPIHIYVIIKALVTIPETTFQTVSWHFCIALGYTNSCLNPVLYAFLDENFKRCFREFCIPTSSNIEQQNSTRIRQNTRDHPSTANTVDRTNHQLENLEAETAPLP

Chain of human κ opioid receptor (P41145 whole entry): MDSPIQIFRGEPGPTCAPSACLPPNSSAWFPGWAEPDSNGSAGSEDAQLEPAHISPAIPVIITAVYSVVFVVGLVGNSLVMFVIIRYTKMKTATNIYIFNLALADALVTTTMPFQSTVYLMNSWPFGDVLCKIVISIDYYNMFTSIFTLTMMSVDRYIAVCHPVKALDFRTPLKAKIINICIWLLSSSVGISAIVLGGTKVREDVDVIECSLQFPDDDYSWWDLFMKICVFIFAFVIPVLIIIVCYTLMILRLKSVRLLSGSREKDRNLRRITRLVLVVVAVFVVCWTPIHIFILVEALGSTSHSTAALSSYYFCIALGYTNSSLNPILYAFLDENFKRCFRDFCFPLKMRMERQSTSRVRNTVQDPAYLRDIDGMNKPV

| SMILES | Functional description (human κ opioid receptor) | Emax (human κ opioid receptor) [%] | Functional description (human μ opioid receptor) | Imax (% maximal inhibition) (human μ opioid receptor) | Emax (human μ opioid receptor) [%] |
| --- | --- | --- | --- | --- | --- |
| CC1C2Cc3ccc(C(=O)NCCc4ccc(-c5ccccc5)cc4)cc3C1(C)CCN2CC1CC1 (racemic) [Compound 1, N-(2-[1,1′-biphenyl]-4-ylethyl)-3-(cyclopropylmethyl)-1,2,3,4,5,6-hexahydro-6,11-dimethyl-2,6-methano-3-benzazocine-8-carboxamide, reference compound] | agonist | 76 ± 6.7 |  |  |  |
| C[C@H]1C2Cc3ccc(C(=O)NCCc4ccc(-c5ccccn5)cc4)cc3[C@@]1(C)CCN2CC1CC1 [Compound 6] | agonist | 50 ± 2.6 | partial agonist | 87 ± 3.1 | 31 ± 1.8 |
| C[C@H]1C2Cc3ccc(C(=O)NCCc4ccc(-c5cccnc5)cc4)cc3[C@@]1(C)CCN2CC1CC1 [Compound 5] | agonist | 52 ± 0.55 | partial agonist | 83 ± 2.9 | 28 ± 2.2 |
| C[C@H]1C2Cc3ccc(C(=O)NCCc4ccc(-c5ccccc5)cn4)cc3[C@@]1(C)CCN2CC1CC1 [Compound 8] | agonist | 64 ± 2.4 | partial agonist | 53 ± 5.4 | 25 ± 1.1 |
| C[C@H]1C2Cc3ccc(C(=O)NCCc4ccc(-c5ccncc5)cc4)cc3[C@@]1(C)CCN2CC1CC1 [Compound 4] | agonist | 64 ± 5.1 | partial agonist | 79 ± 3.3 | 33 ± 0.68 |
| C[C@H]1C2Cc3ccc(C(N)=O)cc3[C@@]1(C)CCN2CC1CC1 [Compound 2, 8-carboxamidocyclazocine, reference compound] | agonist | 87 ± 6.5 | functional partial agonists; also recorded: partial agonist | 76 ± 1.1 | 24 ± 1.9 |
| C[C@H]1C2Cc3ccc(C(=O)NCCc4ccc(-c5ccccc5)nc4)cc3[C@@]1(C)CCN2CC1CC1 [Compound 7] | agonist | 52 ± 4.8 | partial agonist | 87 ± 1.2 | 30 ± 2.3 |
